The record followed here is US20230312587A1, “PTERIDINONE COMPOUNDS AND USES THEREOF” (Vertex Pharmaceutical Incorporated, priority 2018, published 2023).

The structures appear in SMILES notation.

One assay addresses Plk1 (Homo sapiens (Human), UniProt P53350). Description: PLK1 inhibition assay (radioactive-phosphate incorporation). The conditions noted are these: Ki(app), read-out: PLK1 - 33P.ENZ - CB 10 Ki. The format is biochemical. The method, boiled down: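 Radioactive-phosphate incorporation with 15 nM Plk1 and 9 µM Sam68 substrate, 20 µM [γ-33P]ATP, in 25 mM HEPES pH 7.5, 10 mM MgCl2, 25 mM NaCl, 2 mM DTT, 1.5% DMSO, room temperature, 45 min. Stopped with TCA/cold ATP, filtered, scintillation counted. Ki(app) from non-linear regression of background-corrected initial rates.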

In the next assay the test system is Colo-205 Control shRNA. Description: TCF reporter activity, Colo-205 Control shRNA. It counts as cell-based. The method, then:
(§1) Colo-205 (ATCC, catalog #CCL-222), HepG2 (ATCC, catalog #HB-8065), CFPAC1 (ATCC, catalog #CRL-1918), or DU4475 (ATCC, catalog #HTB-123) cells are plated in 10 mL of complete DMEM cell culture media [DMEM (Life Technologies, product #11960-051) media supplemented with 10% FBS (Hyclone, catalog #SH30071.03), antimycotic/antibiotic (Life Technologies, product #15240-062), and Glutamax (Life Technologies, product #35050-061)] at 3×10^6 cells per 10 cm cell culture plate (Corning, product #430167). Cells are allowed to attach and grow overnight at 37° C. in humidified 5% CO2. Cells are transduced by addition of 1×10^6 infectious units of lentivirus encoding WFS1 shRNA (Santa Cruz Biotech, catalog #sc-61804-V) or a non-targeting control shRNA (Santa Cruz Biotech, catalog #sc-108080) and 10 ug/ml of Polybrene® (Santa Cruz Biotech, catalog #sc-134220) to the cell culture media. After 48 hours transduced cells are selected by the addition of 1 microgram/mL of puromycin (Life Technologies, catalog #A1113803) to the cell culture media.

The next assay has as its system Colo-205 WFS1 shRNA. Description: TCF reporter activity, Colo-205 WFS1 shRNA. The format is cell-based. The method, then: as §1
A further assay deals with DU4475 Control shRNA. The assay can be described thus: TCF reporter activity, DU4475 Control shRNA. The format is cell-based. The method, then: as §1
Another assay relates to DU4475 WFS1 shRNA. Description: TCF reporter activity, DU4475 WFS1 shRNA. The format is cell-based. The method, then:
as §1

Assay [1] deals with Colo-205 cells, non-targeting control shRNA. The assay can be described thus: Cell viability, Colo-205 control shRNA. It counts as cell-based. The method, then:
as §1

For assay [2], the system named is Colo-205 cells, shRNA targeting WFS1. The assay can be described thus: Cell viability, Colo-205 WFS1 shRNA. It counts as cell-based. The method, then: as §1
For assay [3], the system named is DU4475 cells, non-targeting control shRNA. Description: Cell viability, DU4475 control shRNA. The format is cell-based. The method, then: as §1
Assay [4] relates to DU4475 cells, shRNA targeting WFS1. Description: Cell viability, DU4475 WFS1 shRNA. It counts as cell-based. The method, then:
as §1

Assay [5] concerns HepG2 cells, non-targeting control shRNA. The assay can be described thus: Cell viability, HepG2 control shRNA. It counts as cell-based. The method, then:
as §1

Assay [6] has as its system HepG2 cells, shRNA targeting WFS1. The assay can be described thus: Cell viability, HepG2 WFS1 shRNA. It counts as cell-based. The method, then:
as §1

Assay [7] concerns ER stress marker proteins XBP1(s) and ATF4. The assay can be described thus: ER stress marker immunoblot in parental HepG2 vs WFS1 KO cells. It counts as cell-based. The conditions noted are these: 6 hours, immunoblotting. The source says:
In contrast WFS1 depletion had no effect on thapsigargin induced changes in global gene expression (FIG. 7.)
For orientation: A western blot detects proteins with antibodies after separation by electrophoresis.

The subject of assay [8] is non-small cell lung cancer (NSCLC) adenocarcinoma line D33966. The assay can be described thus: In vivo efficacy, NSCLC patient derived xenograft OD33966. Details: species or system nu/nu mice. Particulars: NSCLC PDX OD33966, oral, 100 mpk qd, treatment day 14. The method, then: Female immune deficient mice (Charles River, 4-6 wks age) were anesthetized with Ketamine-Xylazine (140 mg/kg-14 mg/kg ip) and shaved. Puralube eye ointment was applied to the eyes to prevent desiccation of the corneas. Betadine and 70% ethanol was applied to the shaved location to sterilize the skin at the location of the incision. The animals were placed in a biosafety cabinet for the duration of the surgery. Using scissors, an 8 to 10 mm incision was made in the lateral flank of the skin. A tumor fragment weighing between 50 and 150 mg was placed under the skin at the incision site using forceps, and staples were used to close the incision. The staples were removed 5 to 7 days after surgery. Starting approximately two weeks after implantation, animals were weighed, and tumors were measured using caliper twice weekly. Tumor volume was calculated using the formula: volume=length×width^2×0.52.
Compound administration began when xenografts reached approximately 100-300 mm3 and continued until control xenografts reached […] of the animal's body weight. Test compounds were administered orally by gastric gavage. Percent tumor growth inhibition (TG) was calculated on the indicated treatment day. Percent TGI is defined as: [1−(del T/del C)]×100%, where del T is the final minus initial average volumes of the treated group, and del C is the final minus initial average volumes of the control group. […] The tested compounds were administered orally. Vehicle control consisted of either 0.5% methylcellulose/0.1% sodium lauryl sulfate or 20% captisol. Tumor volumes were determined by caliper measurement twice a week.
(In general: Xenograft models place foreign cells or tissue in a host animal.)

Plk1, sequence (P53350 whole entry, species assumed): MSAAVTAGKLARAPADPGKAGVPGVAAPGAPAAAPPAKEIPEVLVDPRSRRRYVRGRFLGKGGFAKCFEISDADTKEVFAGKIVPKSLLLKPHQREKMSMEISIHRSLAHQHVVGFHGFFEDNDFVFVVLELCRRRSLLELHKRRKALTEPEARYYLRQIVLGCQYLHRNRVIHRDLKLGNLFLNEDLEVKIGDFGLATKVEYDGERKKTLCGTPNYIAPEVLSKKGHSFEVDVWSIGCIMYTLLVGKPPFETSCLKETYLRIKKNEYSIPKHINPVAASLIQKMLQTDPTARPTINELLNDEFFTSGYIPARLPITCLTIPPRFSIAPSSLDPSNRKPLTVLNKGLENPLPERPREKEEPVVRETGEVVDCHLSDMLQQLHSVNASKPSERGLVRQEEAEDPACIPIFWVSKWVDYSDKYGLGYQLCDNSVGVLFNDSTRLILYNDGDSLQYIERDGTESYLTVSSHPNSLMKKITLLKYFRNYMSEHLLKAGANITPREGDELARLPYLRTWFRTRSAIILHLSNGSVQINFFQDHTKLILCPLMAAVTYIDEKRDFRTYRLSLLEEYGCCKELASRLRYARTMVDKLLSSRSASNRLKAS

What is called IC50 is the concentration at which inhibition is half-maximal. Higher therefore signals weaker potency. With `Cc1nc(NCc2cnn(Cc3ccc(C(F)(F)F)nc3)c2)nc2c1NC(=O)[C@H](C)N2C` [Compound 136, (7S)-4,7,8-trimethyl-2-(((1-((6-(trifluoromethyl)pyridin-3-yl)methyl)-111-pyrazol-4-yl)methyl)amino)-7,8-dihydropteridin-6(5H)-one], on Plk1, the Ki was over 4000 nM. The IC50 is 0.1 µM in the assay with Colo-205 Control shRNA; 0.7 µM with Colo-205 WFS1 shRNA; 0.09 µM with DU4475 Control shRNA; 0.7 µM in the assay on DU4475 WFS1 shRNA; 0.05 µM in assay [1]; over 9 µM in [2] (Colo-205 WFS1 shRNA). For the same compound, the 50% inhibitory concentration (IC50) stood at 0.08 µM in [3], 6.1 µM in assay [4], 0.26 µM in assay [5] and 2.2 µM in assay [6]. The “increase in the IC50 in reducing cell viability on WFS1 knockdown” value in assay [2] (DU4475, Colo-205 and HepG2 cells, WFS1 shRNA vs control cells) was “greater than 50 fold”. In assay [7], the “effect of WFS1 depletion on induction of XBP1(s) and ATF4” value was “prevents the induction”. Also, the “% TGI” value in [8] came to 106.65%.
